# Reference: patent US9718816B2, “1-phenoxy-3-(alkylamino)-propan-2-ol derivatives as CARM1 inhibitors and uses thereof” (Epizyme, Inc., priority 2013, dated 2017)
# pIC50: −log10 of the molar value.
# Target: T1, CARM1 (Homo sapiens, UniProt Q86X55)
# T1 construct: Flag-CARM1-His; made in house; host or cells: HEK 293F cells infected with recombinant baculovirus (pFastBacMam)
# T1 sequence (Q86X55 1-585 isoform Q86X55-1): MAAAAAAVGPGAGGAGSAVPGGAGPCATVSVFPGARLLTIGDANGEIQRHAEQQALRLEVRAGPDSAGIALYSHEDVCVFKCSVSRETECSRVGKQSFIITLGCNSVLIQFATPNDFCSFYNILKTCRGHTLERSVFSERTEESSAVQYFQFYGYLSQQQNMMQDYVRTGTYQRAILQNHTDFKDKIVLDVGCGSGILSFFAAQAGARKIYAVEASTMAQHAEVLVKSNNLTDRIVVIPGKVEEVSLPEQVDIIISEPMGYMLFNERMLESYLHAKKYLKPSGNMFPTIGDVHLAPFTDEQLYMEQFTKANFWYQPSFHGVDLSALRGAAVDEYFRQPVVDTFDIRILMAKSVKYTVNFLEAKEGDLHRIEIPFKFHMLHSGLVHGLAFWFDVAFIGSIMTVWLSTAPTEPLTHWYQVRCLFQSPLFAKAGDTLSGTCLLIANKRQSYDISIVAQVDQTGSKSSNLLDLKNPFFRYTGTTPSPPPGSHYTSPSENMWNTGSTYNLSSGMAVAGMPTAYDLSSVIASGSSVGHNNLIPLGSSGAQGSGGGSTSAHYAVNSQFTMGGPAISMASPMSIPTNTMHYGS
# Experiment: CARM1 enzyme assay on peptide substrate (3H-SAM Flashplate)
# Format: biochemical
# Details: CARM1 0.25 nM, 3H-SAM 30 nM, peptide 250 nM, 30 min preincubation; read-out: Biochem IC50
# Description: S-adenosylmethionine (SAM), S-adenosylhomocysteine (SAH), bicine, Tween20, dimethylsulfoxide (DMSO), bovine skin gelatin (BSG), sodium butyrate and Tris(2-carboxyethyl)phosphine hydrochloride solution (TCEP) were purchased from Sigma-Aldrich at the highest level of purity possible. ^3H-SAM was purchase from American Radiolabeled Chemicals with a specific activity of 80 Ci/mmol. 384-well streptavidin Flashplates were purchased from PerkinElmer.
# Peptide representative of human histone H3 residues 16-30 was synthesized with an N-terminal linker-affinity tag motif and a C-terminal amide cap by 21^St Century Biochemicals. The peptide was purified by high-performance liquid chromatography (HPLC) to greater than 95% purity and confirmed by liquid chromatography mass spectrometry (LC-MS). The sequence was Biot-Ahx-[…]-amide and contained a monomethylated arginine at position 26 (SEQ ID NO.:1).
# Human CARM1 (PRMT4) (NM_199141.1) transcript clone was amplified from an HEK 293 cDNA library, incorporating a flanking 5′ sequence encoding a FLAG tag ([…]) (SEQ ID NO.:2) fused directly to Ala 2 of CARM1 and 3′ sequence encoding a hexa His sequence ([…]) (SEQ ID NO.:3) fused directly to Ser 608. The gene sequence encoding isoform1 containing a deletion of amino acids 539-561 was amplified subsequently and subcloned into pFastBacMam (Viva Biotech). Protein Expression
# Recombinant baculovirus were generated according to Bac-to-Bac kit instructions (Life Technologies). Protein over-expression was accomplished by infecting exponentially growing HEK 293F cell culture at 1.3×10^6 cell/ml with virus (MOI=10) in the presence of 8 mM sodium butyrate. Infections were carried out at 37° C. for 48 hours, harvested by centrifugation, and stored at −80° C. for purification.
# Column was washed with 500 mM NaCl in buffer A and Flag-CARM1-His was eluted with 200 ug/ml FLAG peptide in buffer A. Pooled fractions were dialyzed in 20 mM Tris, 150 mM NaCl, 5% glycerol and 1 mM DTT, pH 7.8. The purity of recovered protein was 94.
# General Procedure for CARM1 Enzyme Assays on Peptide Substrates
# The assays were all performed in a buffer consisting of 20 mM Bicine (pH=7.6), 1 mM TCEP, 0.005% BSG, and 0.002% Tween 20, prepared on the day of use. Compounds in 100% DMSO (1 ul) were spotted into a polypropylene 384-well V-bottom plates (Greiner) using a Platemate Plus outfitted with a 384-channel head (Thermo Scientific). DMSO (1 ul) was added to Columns 11, 12, 23, 24, rows A-H for the maximum signal control and 1 ul of SAH, a known product and inhibitor of CARM1, was added to columns 11, 12, 23, 24, rows I-P for the minimum signal control. A cocktail (40 ul) containing the CARM1 enzyme was added by Multidrop Combi (Thermo-Fisher). The compounds were allowed to incubate with CARM1 for 30 min at room temperature, then a cocktail (10 ul) containing ^3H-SAM and peptide was added to initiate the reaction (final volume=51 ul). The final concentrations of the components were as follows: CARM1 was 0.25 nM, ^3H-SAM was 30 nM, peptide was 250 nM, SAH in the minimum signal control wells was 1 mM, and the DMSO concentration was 2%. The assays were stopped by the addition of non-radiolabeled SAM (10 ul) to a final concentration of 300 uM, which dilutes the ^3H-SAM to a level where its incorporation into the peptide substrate is no longer detectable. 50 ul of the reaction in the 384-well polypropylene plate was then transferred to a 384-well Flashplate and the biotinylated peptides were allowed to bind to the streptavidin surface for at least 1 hour before being washed once with 0.1% Tween20 in a Biotek ELx405 plate washer. The plates were then read in a PerkinElmer TopCount plate reader to measure the quantity of ^3H-labeled peptide bound to the Flashplate surface, measured as disintegrations per minute (dpm) or alternatively, referred to as counts per minute (cpm). […]
row,Structure (SMILES),pIC50
1,CNCC(O)COc1cccc(-c2cc(N(C)CC3CCOCC3)c3cnn(C(C)C)c3n2)c1 (stereo not drawn) [Example 48-1],> 7.00
2,CC(C)n1ncc2c(NCC3CCOCC3)cc(-c3cccc(OCC(O)CN)c3)nc21 (stereo not drawn) [Example 30-1],> 7.00
3,CC(C)n1ncc2c(NCc3cccnc3)cc(-c3cccc(OCC(O)CN)c3)nc21 (stereo not drawn) [Example 25-1],5.00 to 5.52
4,CCOC(=O)Nc1cc(-c2cccc(OCC(O)CN)c2)nc2c1cnn2C(C)C (stereo not drawn) [Example 17-1],6.00 to 7.00
5,CNCC(O)COc1cccc(-c2cc(NC(=O)N(C)C)c3cnn(C(C)C)c3n2)c1 (stereo not drawn) [Example 21-1],6.00 to 7.00
6,CC(C)n1ncc2c(NC(=O)N(C)C)cc(-c3cccc(OCC(O)CN)c3)nc21 (stereo not drawn) [Example 14-1],6.00 to 7.00
7,CNCC(O)COc1cccc(-c2cc(Nc3ccccn3)c3cnn(C(C)C)c3n2)c1 (stereo not drawn) [Example 24-1],6.00 to 7.00
8,CNCC(O)COc1cccc(-c2cc(NCC(=O)OC)c3cnn(C(C)C)c3n2)c1 (stereo not drawn) [Example 23-1],6.00 to 7.00
9,CC(C)n1ncc2c(NC3CC3)cc(-c3cccc(OCC(O)CN)c3)nc21 (stereo not drawn) [Example 6-1],6.00 to 7.00
10,CNCC(O)COc1cccc(-c2cc(N3CCOCC3)c3cnn(C(C)C)c3n2)c1 (stereo not drawn) [Example 20-1],> 7.00
11,Cc1c(CNc2cc(-c3cccc(OCC(O)CN)c3)nc3c2cnn3C(C)C)cnn1C (stereo not drawn) [Example 37-1],5.00 to 5.52
12,CNCC(O)COc1cccc(-c2cc(N(C)C3CCOCC3)c3cnn(C(C)C)c3n2)c1 (stereo not drawn) [Example 40-1],6.00 to 7.00
13,CC(C)n1ncc2c(N3CCOCC3)cc(-c3cccc(OC[C@@H](O)CN)c3)nc21 [Example 12-1],6.00 to 7.00
14,CC(C)n1ncc2c(NCc3ccncc3)cc(-c3cccc(OCC(O)CN)c3)nc21 (stereo not drawn) [Example 26-1],> 7.00
15,CNCC(O)COc1cccc(-c2cc(NCCCCCN)c3cnn(C(C)C)c3n2)c1 (stereo not drawn) [Example 32-1],> 7.00
16,CNCC(O)COc1cccc(-c2cc(NCCCCCNC(=O)c3cccnc3)c3cnn(C(C)C)c3n2)c1 (stereo not drawn) [Example 63-1],6.00 to 7.00
17,CC(C)n1ncc2c(N(C)CC3CCOCC3)cc(-c3cccc(OCC(O)CN)c3)nc21 (stereo not drawn) [Example 42-1],> 7.00
18,CNCC(O)COc1cccc(-c2cc(NC(=O)OCc3ccccc3)c3cnn(C(C)C)c3n2)c1 (stereo not drawn) [Example 54-1],6.00 to 7.00
19,COC(=O)CNc1cc(-c2cccc(OCC(O)CN)c2)nc2c1cnn2C(C)C (stereo not drawn) [Example 18-1],6.00 to 7.00
20,CNCC(O)COc1cccc(-c2cc(NCc3c(C)cc(C)nc3OC)c3cnn(C(C)C)c3n2)c1 (stereo not drawn) [Example 57-1],6.00 to 7.00
21,CCNCC(O)COc1cccc(-c2cc(N3CCOCC3)c3cnn(C(C)C)c3n2)c1 (stereo not drawn) [Example 31-1],> 7.00
22,CC(C)n1ncc2c(NS(=O)(=O)N(C)C)cc(-c3cccc(OCC(O)CN)c3)nc21 (stereo not drawn) [Example 36-1],> 7.00
23,CNCC(O)COc1cccc(-c2cc(NC3CC3)c3cnn(C(C)C)c3n2)c1 (stereo not drawn) [Example 7-1],6.00 to 7.00
24,CNCC(O)COc1cccc(-c2cc(NS(=O)(=O)N(C)C)c3cnn(C(C)C)c3n2)c1 (stereo not drawn) [Example 45-1],> 7.00
25,CNCC(O)COc1cccc(-c2cc(NCCCNC(=O)c3ccn(C)n3)c3cnn(C(C)C)c3n2)c1 (stereo not drawn) [Example 60-1],6.00 to 7.00
26,COC(=O)Nc1cc(-c2cccc(OCC(O)CN)c2)nc2c1cnn2C(C)C (stereo not drawn) [Example 10-1],6.00 to 7.00

row,Structure (SMILES),pIC50
1,CNCC(O)COc1cccc(-c2cc(NCCCNC(=O)c3cccnc3)c3cnn(C(C)C)c3n2)c1 (stereo not drawn) [Example 59-1],6.00 to 7.00
2,CNCC(O)COc1cccc(-c2cc(NCCN)c3cnn(C(C)C)c3n2)c1 (stereo not drawn) [Example 9-1],6.00 to 7.00
3,CNCC(O)COc1cccc(-c2cc(NCCCCCNC(=O)c3ccn(C)n3)c3cnn(C(C)C)c3n2)c1 (stereo not drawn) [Example 64-1],> 7.00
4,CNCC(O)COc1cccc(-c2cc(NC(=O)OC)c3cnn(C(C)C)c3n2)c1 (stereo not drawn) [Example 16-1],6.00 to 7.00
5,CNCC(O)COc1cccc(-c2cc(NCCCCN)c3cnn(C(C)C)c3n2)c1 (stereo not drawn) [Example 22-1],> 7.00
6,CNCC(O)COc1cccc(-c2cc(NCCCCNC(=O)c3cccnc3)c3cnn(C(C)C)c3n2)c1 (stereo not drawn) [Example 61-1],6.00 to 7.00
7,CNCC(O)COc1cccc(-c2cc(NCCCN)c3cnn(C(C)C)c3n2)c1 (stereo not drawn) [Example 15-1],6.00 to 7.00
8,CC(C)n1ncc2c(N(C)C3CCOCC3)cc(-c3cccc(OCC(O)CN)c3)nc21 (stereo not drawn) [Example 28-1],6.00 to 7.00
9,CNCC(O)COc1cccc(-c2cc(NCC3CCOCC3)c3cnn(C(C)C)c3n2)c1 (stereo not drawn) [Example 41-1],> 7.00
10,CNCC(O)COc1cccc(-c2cc(NC3CCOCC3)c3cnn(C(C)C)c3n2)c1 (stereo not drawn) [Example 29-1],5.00 to 5.52
11,CC(C)n1ncc2c(N3CCOCC3)cc(-c3cccc(OCC(O)CN)c3)nc21 (stereo not drawn) [Example 3-1],> 7.00
12,CC(C)n1ncc2c(N[C@H]3CO[C@@H]4OCC[C@@H]43)cc(-c3cccc(OCC(O)CN)c3)nc21 (stereo partly drawn) [Example 38-1],> 7.00
13,CNCC(O)COc1cccc(-c2cc(NCCNC(=O)c3cccnc3)c3cnn(C(C)C)c3n2)c1 (stereo not drawn) [Example 56-1],6.00 to 7.00
14,CNCC(O)COc1cccc(-c2cc(N)c3cnn(C(C)C)c3n2)c1 (stereo not drawn) [Example 4-1],5.52 to 6.00
15,CC(C)n1ncc2c(NC(=O)OCc3ccccc3)cc(-c3cccc(OCC(O)CN)c3)nc21 (stereo not drawn) [Example 51-1],> 7.00
16,CNCC(O)COc1cccc(-c2cc(N(C)c3ccccn3)c3cnn(C(C)C)c3n2)c1 (stereo not drawn) [Example 33-1],6.00 to 7.00
17,CNCC(O)COc1cccc(-c2cc(N[C@H]3CO[C@@H]4OCC[C@@H]43)c3cnn(C(C)C)c3n2)c1 (stereo partly drawn) [Example 47-1],6.00 to 7.00
18,CNCC(O)COc1cccc(-c2cc(NCc3cnc4ccccn34)c3cnn(C(C)C)c3n2)c1 (stereo not drawn) [Example 53-1],> 7.00
19,CC(C)n1ncc2c(NC3CCOCC3)cc(-c3cccc(OCC(O)CN)c3)nc21 (stereo not drawn) [Example 19-1],6.00 to 7.00
20,CNCC(O)COc1cccc(-c2cc(NCc3ccccn3)c3cnn(C(C)C)c3n2)c1 (stereo not drawn) [Example 34-1],6.00 to 7.00
21,CNCC(O)COc1cccc(-c2cc(NC)c3cnn(C(C)C)c3n2)c1 (stereo not drawn) [Example 5-1],6.00 to 7.00
22,CNCC(O)COc1cccc(-c2cc(NCCCCCCNC(=O)c3cccnc3)c3cnn(C(C)C)c3n2)c1 (stereo not drawn) [Example 65-1],6.00 to 7.00
23,CNCC(O)COc1cccc(-c2cc(N(C)Cc3ccccn3)c3cnn(C(C)C)c3n2)c1 (stereo not drawn) [Example 44-1],6.00 to 7.00
24,CNCC(O)COc1cccc(-c2cc(NCCCCNC(=O)c3ccn(C)n3)c3cnn(C(C)C)c3n2)c1 (stereo not drawn) [Example 62-1],6.00 to 7.00
25,CNC(=O)Nc1cc(-c2cccc(OCC(O)CN)c2)nc2c1cnn2C(C)C (stereo not drawn) [Example 8-1],6.00 to 7.00
